Laboratory results published in US5126258A (priority 1988, dated 1992).

How the values were obtained:
[1] = test system: 17G8; assay: Hydrolysis of reactant ligands by receptor 17G8; format: biochemical, mouse
Description: (§1) ^1 Preliminary initial hydrolyses shown as the percentage of admixed
(§2) reactant ligand consumed for catalyzed and spontaneous hydrolyses. "--" =
(§3) No hydrolysis observed. "NT" = Not tried. All reactions were carried out
(§4) at pH 8.0 in a 50 mM phosphate buffer unless otherwise noted. Hydrolytic
(§5) percentages were determined by HPLC using a Hitachi model 655A12 liquid
(§6) chromatograph with a C18 Vydac 201TP54 column, except as noted below.
(§7) Mixtures of acetonitrile a nd water containing 0.1 percent trichloroaceti
(§8) acid [28:72-50:50 (v/v)] were used as elutant. Hydrolyses of Compounds 5
(§9) and 20 were assayed using fluorescence data.
(§10) ^2 Concentrations of receptor molecules (Rec.) and reactant ligands
(§11) (Lig.) in micromolar units, presuming a molecular weight of 150,000
(§12) daltons for each receptor molecule.
(§13) ^3 Reactant ligand (Lig.) used as substrate.
(§14) ^4 Time in hours that the reaction was permitted to take place.
(§15) ^5 Spontaneous hydrolytic percentages for the time period indicated.
(§16) ^6 Reaction carried out at pH 7.2 in a 50 mM phosphate buffer.

[2] = Spontaneous (uncatalyzed, background) hydrolysis; format: physicochemical; conditions: for Spon. (spontaneous hydrolysis): pH 8.0, 50 mM phosphate, time (h): 17 2, 18 24, 20 0.33, 5 0.33, 22 3.5
How it was run: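 Background (uncatalyzed) hydrolysis of ester substrates measured in 50 mM phosphate buffer, pH 8.0, without antibody, as percentage of reactant consumed over the stated period. Quantified by C18 HPLC (acetonitrile/water with 0.1% trichloroacetic acid); Compounds 5 and 20 followed by fluorescence (ex 355 nm, em 455 nm).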

[3] = test system: 22F5; assay: Hydrolysis of reactant ligands by receptor 22F5; format: biochemical, mouse; conditions: for hydrolysis by 22F5: pH 8.0, receptor/ligand uM, time h: 17 1/10, 2, 18 2/10, 24, 20 2/10, 0.33, 5 1/5, 0.33, 22 5/10, 3.5, preliminary
Description: as §1, §2, §3, §4, §5, §6, §7, §8, §9, §10, §11, §12, §13, §14, §15, §16

[4] = test system: 44A2; assay: Hydrolysis of reactant ligands by receptor 44A2; format: biochemical, mouse; conditions: for hydrolysis by 44A2: pH 8.0, receptor/ligand uM, time h: 17 1/10, 2, 18 2/10, 24, 20 2/10, 0.33, 5 1/5, 0.33, 22 5/10, 3.5, preliminary
Description: as §1, §2, §3, §4, §5, §6, §7, §8, §9, §10, §11, §12, §13, §14, §15, §16

[5] = test system: 7E5; assay: Hydrolysis of reactant ligands by receptor 7E5; format: biochemical, mouse; conditions: for hydrolysis by 7E5: pH 8.0, receptor/ligand uM, time h: 17 1/10, 2, 18 2/10, 24, 20 2/10, 0.33, 5 1/5, 0.33, 22 5/10, 3.5, preliminary
Description: as §1, §2, §3, §4, §5, §6, §7, §8, §9, §10, §11, §12, §13, §14, §15, §16

[6] = test system: 37G2; assay: Hydrolysis of reactant ligands by receptor 37G2; format: biochemical, mouse; conditions: for hydrolysis by 37G2: pH 8.0, receptor/ligand uM, time h: 17 1/10, 2, 18 2/10, 24, 20 2/10, 0.33, 5 1/5, 0.33, 22 5/10, 3.5, preliminary
Description: as §1, §2, §3, §4, §5, §6, §7, §8, §9, §10, §11, §12, §13, §14, §15, §16

[7] = test system: 13E10; assay: Hydrolysis of reactant ligands by receptor 13E10; format: biochemical, mouse; conditions: for hydrolysis by 13E10: pH 8.0, receptor/ligand uM, time h: 17 1/10, 2, 18 2/10, 24, 20 2/10, 0.33, 5 1/5, 0.33, 22 5/10, 3.5, preliminary
Description: as §1, §2, §3, §4, §5, §6, §7, §8, §9, §10, §11, §12, §13, §14, §15, §16

[8] = test system: 21G2; assay: Hydrolysis of reactant ligands by receptor 21G2; format: biochemical, mouse; conditions: for hydrolysis by 21G2: pH 8.0, receptor/ligand uM, time h: 17 1/10, 2, 18 2/10, 24, 20 2/10, 0.33, 5 1/5, 0.33, 22 5/10, 3.5, preliminary
Description: as §1, §2, §3, §4, §5, §6, §7, §8, §9, §10, §11, §12, §13, §14, §15, §16

[9] = test system: 1209; assay: Hydrolysis of reactant ligands by receptor 12C9 (column head prints 1209); format: biochemical, mouse; conditions: for hydrolysis by 1209: pH 8.0, receptor/ligand uM, time h: 17 1/10, 2, 18 2/10, 24, 20 2/10, 0.33, 5 1/5, 0.33, 22 5/10, 3.5, preliminary
Description: as §1, §2, §3, §4, §5, §6, §7, §8, §9, §10, §11, §12, §13, §14, §15, §16

[10] = pH 7.2, 1 uM receptor, 10 uM ligand, 2 h

hydrolysis by 17G8 ([1]; pH 8.0, receptor/ligand uM, time h: 18 2/10, 24, 20 2/10, 0.33, 5 1/5, 0.33, 22 5/10, 3.5, preliminary) | spontaneous rate of hydrolysis ([2]; above pH 8.0) | Spon. (spontaneous hydrolysis) [2] | hydrolysis by 22F5 [3] | hydrolysis by 44A2 [4] | hydrolysis by 7E5 [5] | hydrolysis by 37G2 [6] | hydrolysis by 13E10 [7] | hydrolysis by 21G2 [8] | hydrolysis by 1209 [9] | hydrolysis by 17G8, pH 7.2 [1, 10] | Spon. (spontaneous hydrolysis), pH 7.2 ([2]; pH 7.2, 50 mM phosphate, 2 h) | hydrolysis by 22F5, pH 7.2 [3, 10] | hydrolysis by 44A2, pH 7.2 [4, 10] | hydrolysis by 7E5, pH 7.2 [5, 10] | hydrolysis by 37G2, pH 7.2 [6, 10] | hydrolysis by 13E10, pH 7.2 [7, 10] | hydrolysis by 21G2, pH 7.2 [8, 10] | hydrolysis by 1209, pH 7.2 [9, 10] | Structure (SMILES)
16 percentage of reactant ligand | rapid | 5 percentage of reactant ligand | 48 percentage of reactant ligand | 47 percentage of reactant ligand | 8 percentage of reactant ligand | 12 percentage of reactant ligand | 13 percentage of reactant ligand | 43 percentage of reactant ligand | 11 percentage of reactant ligand | – | – | – | – | – | – | – | – | – | O=C(Cc1ccc(NC(=O)C(F)(F)F)cc1)Oc1ccc2ccc(=O)oc2c1 [Compound 5]
– | – | 7 percentage of reactant ligand | 51 percentage of reactant ligand | 62 percentage of reactant ligand | 30 percentage of reactant ligand | 60 percentage of reactant ligand | 32 percentage of reactant ligand | 10 percentage of reactant ligand | 55 percentage of reactant ligand | 15 percentage of reactant ligand | 4 percentage of reactant ligand | 16 percentage of reactant ligand | 19 percentage of reactant ligand | 35 percentage of reactant ligand | 39 percentage of reactant ligand | 33 percentage of reactant ligand | 10 percentage of reactant ligand | 35 percentage of reactant ligand | CC(=O)Nc1ccc(CC(=O)Oc2cccc3ccccc23)cc1 [Compound 17]
